Measurements published in ChEMBL document CHEMBL1201862, “PubChem BioAssay data set” (2004).
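Cells were grown in 96-well plates and exposed to each compound for 48 hours at five concentrations; endpoints were interpolated linearly between bracketing concentrations, or set to the highest concentration if not reached. GI50 = concentration required for 50% inhibition of growth.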 The source made the active and inactive calls. No stated cut-off is given here; in the data, active = GI50 up to about 1.1 µM and inactive = higher.

How the values were obtained:
Assay in all cases: NCI-60 cell line screen, 48 h
KM12 = tested on: KM12
786-0 = tested on: 786-0
IGROV-1 = tested on: IGROV-1
COLO 205 = tested on: COLO 205
K562 = tested on: K562
LOX IMVI = tested on: LOX IMVI
UO-31 = tested on: UO-31
SR = tested on: SR
CCRF-CEM = tested on: CCRF-CEM
SK-OV-3 = tested on: SK-OV-3
MOLT-4 = tested on: MOLT-4
HOP-62 = tested on: HOP-62
UACC-62 = tested on: UACC-62
UACC-257 = tested on: UACC-257
NCI-H460 = tested on: NCI-H460
ACHN = tested on: ACHN
TK-10 = tested on: TK-10
SNB-75 = tested on: SNB-75

Measured: GI50

Cc1nc(Nc2ccccc2)sc1C(=O)CC(=O)C(=O)Nc1c(C(C)C)cccc1C(C)C
inactive: KM12 > 100 µM | 786-0 > 100 µM | IGROV-1 > 100 µM | COLO 205 > 100 µM | K562 83 µM | LOX IMVI 43.2 µM | UO-31 78.5 µM | SR 20.6 µM | CCRF-CEM 89.7 µM | SK-OV-3 > 100 µM | MOLT-4 > 100 µM | HOP-62 97.7 µM | UACC-62 55.6 µM | UACC-257 > 100 µM | NCI-H460 > 100 µM | ACHN 95.1 µM | TK-10 > 100 µM

COC1=CC(=O)OC(/C=C(C)/C=C/C2=C(C)CCCC2(C)C)C1 (stereo unspecified)
inactive: KM12 > 100 µM | 786-0 > 100 µM | IGROV-1 > 100 µM | SNB-75 > 100 µM | K562 > 100 µM | UO-31 > 100 µM | SR > 100 µM | CCRF-CEM > 100 µM | SK-OV-3 > 100 µM | MOLT-4 > 100 µM | HOP-62 > 100 µM | UACC-62 > 100 µM | UACC-257 > 100 µM | NCI-H460 > 100 µM | ACHN > 100 µM | TK-10 > 100 µM

CCN(CC)c1c(C(=O)/C=C/c2ccc(Cl)cc2)c(-c2ccccc2)nn(C)c1=O
inactive: KM12 1.92 µM | 786-0 1.85 µM | IGROV-1 2.03 µM | COLO 205 2.03 µM | SNB-75 2.97 µM | K562 2.54 µM | LOX IMVI 1.9 µM | UO-31 1.73 µM | CCRF-CEM 1.97 µM | SK-OV-3 3.94 µM | MOLT-4 2.12 µM | HOP-62 2.12 µM | UACC-62 1.71 µM | UACC-257 1.93 µM | NCI-H460 1.93 µM | ACHN 1.87 µM | TK-10 2.14 µM

CC(=O)OCC1OC(n2c(=O)n(-c3ccccc3)c(=O)c3ccccc32)C(OC(C)=O)C(OC(C)=O)C1OC(C)=O (stereo unspecified)
inactive: KM12 > 100 µM | 786-0 > 100 µM | IGROV-1 > 100 µM | COLO 205 > 100 µM | SNB-75 > 100 µM | K562 > 100 µM | LOX IMVI > 100 µM | UO-31 > 100 µM | CCRF-CEM 53.7 µM | SK-OV-3 > 100 µM | MOLT-4 > 100 µM | HOP-62 > 100 µM | UACC-62 > 100 µM | UACC-257 > 100 µM | NCI-H460 > 100 µM | ACHN > 100 µM | TK-10 > 100 µM

Cn1c(=O)nc2n(-c3cccc(Cl)c3)c3ccccc3nc-2c1=O
inactive: KM12 11.2 µM | 786-0 15.6 µM | IGROV-1 24.8 µM | COLO 205 4.11 µM | SNB-75 15.3 µM | K562 14.1 µM | LOX IMVI 18.7 µM | UO-31 34.9 µM | CCRF-CEM 19 µM | SK-OV-3 78.9 µM | MOLT-4 18.5 µM | HOP-62 28.6 µM | UACC-62 2.68 µM | UACC-257 10.9 µM | NCI-H460 6.4 µM | ACHN 3.63 µM | TK-10 17 µM

Cc1cc(OC(=O)c2c(C)cc(OC(=O)c3c(C)cc(O)cc3O)cc2O)cc(O)c1C(=O)O [GYROPHORIC ACID]
inactive: KM12 > 100 µM | 786-0 > 100 µM | IGROV-1 > 100 µM | COLO 205 > 100 µM | SNB-75 91.6 µM | K562 > 100 µM | LOX IMVI > 100 µM | UO-31 76.4 µM | CCRF-CEM > 100 µM | SK-OV-3 > 100 µM | MOLT-4 > 100 µM | HOP-62 > 100 µM | UACC-62 > 100 µM | UACC-257 > 100 µM | NCI-H460 > 100 µM | ACHN > 100 µM | TK-10 > 100 µM
